The text below walks through data of ChEMBL document CHEMBL3822442, “Synthesis and Pharmacological Characterization of Novel Glucagon-like Peptide-2 (GLP-2) Analogues with Low Systemic Clearance” (J Med Chem, 2016).

pEC50: −log10 of the molar value. The source made the active and inactive calls. The rule behind the calls is not given here. Non-standard residues stand in square brackets, D forms with d. Residues, ends and D or L forms follow the SMILES beside them. ξ: configuration not given here. ξhPhe = NC(CCc1ccccc1)C(=O)O; ξ2Thi = NC(Cc1cccs1)C(=O)O; ξNle = CCCCC(N)C(=O)O

Data set [1] has as its target T1, Glucagon-like peptide 2 receptor (Homo sapiens, UniProt O95838).
T1 sequence (O95838 whole entry): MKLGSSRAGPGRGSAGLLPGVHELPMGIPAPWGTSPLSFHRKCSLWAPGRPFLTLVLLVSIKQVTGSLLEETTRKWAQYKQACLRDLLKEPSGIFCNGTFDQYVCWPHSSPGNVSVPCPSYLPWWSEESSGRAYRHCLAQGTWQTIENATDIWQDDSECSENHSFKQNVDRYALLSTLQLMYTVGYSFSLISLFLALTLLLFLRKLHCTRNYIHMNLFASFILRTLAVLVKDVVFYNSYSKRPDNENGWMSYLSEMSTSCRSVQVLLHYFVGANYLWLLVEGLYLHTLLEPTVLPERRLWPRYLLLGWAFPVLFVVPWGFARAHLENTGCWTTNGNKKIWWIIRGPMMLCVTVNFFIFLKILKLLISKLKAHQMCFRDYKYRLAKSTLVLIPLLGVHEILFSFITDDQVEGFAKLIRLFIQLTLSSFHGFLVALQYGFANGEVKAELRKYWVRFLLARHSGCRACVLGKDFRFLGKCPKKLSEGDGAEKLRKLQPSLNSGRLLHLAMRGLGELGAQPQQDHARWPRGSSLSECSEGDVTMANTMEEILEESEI
Nature of the data set: Agonist activity at human GLP2R expressed in HEK293 cells after 5 hrs by luciferase reporter gene assay. In kind it is cell-based. (Reporter assays use an easily measured gene product as a stand-in for the process of interest.)

The target of data set [2] is Glucagon-like peptide 1 receptor (Homo sapiens, UniProt P43220). Nature of the data set: Agonist activity at human GLP1R expressed in HEK293 cells after 5 hrs by luciferase reporter gene assay. In kind it is cell-based.
Glucagon-like peptide 1 receptor, sequence (P43220 whole entry): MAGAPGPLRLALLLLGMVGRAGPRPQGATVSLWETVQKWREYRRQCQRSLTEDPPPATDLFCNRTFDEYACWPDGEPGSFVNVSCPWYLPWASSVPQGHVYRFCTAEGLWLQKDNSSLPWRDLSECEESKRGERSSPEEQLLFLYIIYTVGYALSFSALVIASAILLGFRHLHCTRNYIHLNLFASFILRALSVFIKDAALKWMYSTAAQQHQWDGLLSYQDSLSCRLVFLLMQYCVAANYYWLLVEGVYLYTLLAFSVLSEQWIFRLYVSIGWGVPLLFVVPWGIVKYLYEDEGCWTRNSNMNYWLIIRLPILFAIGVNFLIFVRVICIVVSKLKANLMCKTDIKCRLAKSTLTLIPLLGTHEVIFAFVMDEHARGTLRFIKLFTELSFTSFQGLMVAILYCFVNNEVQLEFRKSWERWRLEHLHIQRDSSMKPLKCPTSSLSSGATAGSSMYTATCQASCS
The next data set has as its system HEK293. Nature of the data set: Selectivity ratio of EC50 for human GLP1R expressed in HEK293 cells to EC50 for human GLP2R expressed in HEK293. In kind it is cell-based.
A short description of data set [3]: Systemic clearance in Sprague-Dawley rat at 0.2 mg/kg, iv through cassette dosing measured up to 300 mins by LC/MS/MS analysis. It counts as ADME, organism-based. To be noted: in vivo.
Data set [4] concerns the target Glucagon receptor (Homo sapiens) (UniProt P47871). Nature of the data set: Agonist activity at human GCGR expressed in HEK293 cells up to 1000 nM after 5 hrs by luciferase reporter gene assay. It counts as cell-based.

Glucagon receptor (Homo sapiens), sequence (P47871 whole entry): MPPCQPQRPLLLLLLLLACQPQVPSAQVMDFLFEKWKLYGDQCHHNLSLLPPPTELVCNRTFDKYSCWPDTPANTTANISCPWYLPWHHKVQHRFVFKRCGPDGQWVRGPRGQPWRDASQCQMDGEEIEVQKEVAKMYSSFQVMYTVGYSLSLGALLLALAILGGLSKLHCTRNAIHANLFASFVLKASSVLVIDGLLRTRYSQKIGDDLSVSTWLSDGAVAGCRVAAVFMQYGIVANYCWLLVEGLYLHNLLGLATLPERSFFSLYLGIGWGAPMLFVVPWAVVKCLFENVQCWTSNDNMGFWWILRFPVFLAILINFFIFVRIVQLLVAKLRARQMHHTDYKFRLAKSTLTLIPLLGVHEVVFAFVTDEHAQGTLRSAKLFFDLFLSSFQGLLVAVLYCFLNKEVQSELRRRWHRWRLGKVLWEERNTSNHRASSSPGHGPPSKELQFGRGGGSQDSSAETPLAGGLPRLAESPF

The pEC50 is −log10 of the EC50, conventionally taken in molar units. Higher therefore signals a low EC50. What is called clearance is the volume of plasma or blood freed of the substance per unit of time. A low value points to inefficient removal. Take `CCCCC(NC(=O)[C@H](CCC(=O)O)NC(=O)[C@H](CC(=O)O)NC(=O)[C@H](CO)NC(=O)[C@H](Cc1ccccc1)NC(=O)[C@H](CO)NC(=O)CNC(=O)[C@H](CC(=O)O)NC(=O)CNC(=O)[C@@H](N)Cc1cnc[nH]1)C(=O)N[C@@H](CC(N)=O)C(=O)N[C@H](C(=O)N[C@H](C(=O)N[C@@H](CC(C)C)C(=O)N[C@@H](CC(=O)O)C(=O)NC(CCc1ccccc1)C(=O)N[C@@H](CC(C)C)C(=O)N[C@@H](C)C(=O)N[C@@H](C)C(=O)N[C@@H](CCCNC(=N)N)C(=O)N[C@@H](CC(=O)O)C(=O)N[C@@H](Cc1ccccc1)C(=O)N[C@H](C(=O)N[C@@H](CC(N)=O)C(=O)N[C@@H](Cc1c[nH]c2ccccc12)C(=O)N[C@@H](CC(C)C)C(=O)N[C@H](C(=O)N[C@@H](CCC(N)=O)C(=O)N[C@H](C(=O)N[C@@H](CCCCN)C(N)=O)[C@@H](C)O)[C@@H](C)CC)[C@@H](C)CC)[C@@H](C)CC)[C@@H](C)O` (stereo partly drawn) (H-HGDGSFSDE[ξNle]NTILD[ξhPhe]LAARDFINWLIQTK-NH2): the negative-log EC50 (pEC50) in data set [1] was 9.96; in data set [2], less than 6.00. Further, the Ratio EC50 in the data set on HEK293 is greater than 9000. For the same molecule, in data set [3], the clearance came to 0.44 mL/min/kg. Moreover, the result in data set [4] was inactive.

Regarding `CCCCC(NC(=O)[C@H](CCC(=O)O)NC(=O)[C@H](CC(=O)O)NC(=O)[C@H](CO)NC(=O)[C@H](Cc1ccccc1)NC(=O)[C@H](CO)NC(=O)CNC(=O)[C@H](CC(=O)O)NC(=O)CNC(=O)[C@@H](N)Cc1cnc[nH]1)C(=O)N[C@@H](CC(N)=O)C(=O)N[C@H](C(=O)N[C@H](C(=O)N[C@@H](CC(C)C)C(=O)N[C@@H](CC(=O)O)C(=O)NC(Cc1cccs1)C(=O)N[C@@H](CC(C)C)C(=O)N[C@@H](C)C(=O)N[C@@H](C)C(=O)N[C@@H](CCCNC(=N)N)C(=O)N[C@@H](CC(=O)O)C(=O)N[C@@H](Cc1ccccc1)C(=O)N[C@H](C(=O)N[C@@H](CC(N)=O)C(=O)N[C@@H](Cc1c[nH]c2ccccc12)C(=O)N[C@@H](CC(C)C)C(=O)N[C@H](C(=O)N[C@@H](CCC(N)=O)C(=O)N[C@H](C(=O)N[C@@H](CCCCN)C(N)=O)[C@@H](C)O)[C@@H](C)CC)[C@@H](C)CC)[C@@H](C)CC)[C@@H](C)O` (stereo partly drawn) (H-HGDGSFSDE[ξNle]NTILD[ξ2Thi]LAARDFINWLIQTK-NH2), the pEC50 was 9.70 in data set [1] and less than 6.00 in data set [2]. Further, the Ratio EC50 in the data set on HEK293 is greater than 5000. Besides, the clearance in data set [3] was determined as 6.1 mL/min/kg. Besides, in data set [4], the outcome was inactive.

Take `CCCCC(NC(=O)[C@H](CCC(=O)O)NC(=O)[C@H](CC(=O)O)NC(=O)[C@H](CO)NC(=O)[C@H](Cc1ccccc1)NC(=O)[C@H](CO)NC(=O)CNC(=O)[C@H](CC(=O)O)NC(=O)CNC(=O)[C@H](N)Cc1cnc[nH]1)C(=O)N[C@@H](CC(N)=O)C(=O)N[C@H](C(=O)N[C@H](C(=O)N[C@@H](CC(C)C)C(=O)N[C@@H](CC(=O)O)C(=O)NC(Cc1ccc(Cl)cc1)C(=O)N[C@H](CC(C)C)C(=O)N[C@H](C)C(=O)N[C@H](C)C(=O)N[C@H](CCCNC(=N)N)C(=O)N[C@H](CC(=O)O)C(=O)N[C@H](Cc1ccccc1)C(=O)N[C@@H](C(=O)N[C@H](CC(N)=O)C(=O)N[C@@H](Cc1c[nH]c2ccccc12)C(=O)N[C@@H](CC(C)C)C(=O)N[C@H](C(=O)N[C@@H](CCC(N)=O)C(=O)N[C@H](C(=O)N[C@H](CCCCN)C(N)=O)[C@@H](C)O)[C@H](C)CC)[C@@H](C)CC)[C@H](C)CC)[C@@H](C)O` (stereo partly drawn): the Ratio EC50 with HEK293 was greater than 4500. Also, the result in data set [4] was inactive.

Take `CCCCC(NC(=O)[C@@H](CCC(=O)O)NC(=O)[C@@H](CC(=O)O)NC(=O)[C@@H](CO)NC(=O)[C@@H](Cc1ccccc1)NC(=O)[C@@H](CO)NC(=O)CNC(=O)[C@@H](CC(=O)O)NC(=O)CNC(=O)[C@@H](N)Cc1cnc[nH]1)C(=O)N[C@H](CC(N)=O)C(=O)N[C@@H](C(=O)N[C@@H](C(=O)N[C@H](CC(C)C)C(=O)N[C@H](CC(=O)O)C(=O)NC(Cc1ccc2ccccc2c1)C(=O)N[C@@H](CC(C)C)C(=O)N[C@@H](C)C(=O)N[C@@H](C)C(=O)N[C@@H](CCCNC(=N)N)C(=O)N[C@@H](CC(=O)O)C(=O)N[C@@H](Cc1ccccc1)C(=O)N[C@H](C(=O)N[C@@H](CC(N)=O)C(=O)N[C@H](Cc1c[nH]c2ccccc12)C(=O)N[C@H](CC(C)C)C(=O)N[C@@H](C(=O)N[C@H](CCC(N)=O)C(=O)N[C@@H](C(=O)N[C@@H](CCCCN)C(N)=O)[C@H](C)O)[C@@H](C)CC)[C@H](C)CC)[C@@H](C)CC)[C@H](C)O` (stereo partly drawn): the Ratio EC50 in the data set on HEK293 was greater than 7600. For the same molecule, the result in data set [4] was inactive.

In the case of `CCCCC(NC(=O)[C@H](CCC(=O)O)NC(=O)[C@H](CC(=O)O)NC(=O)[C@H](CO)NC(=O)[C@H](Cc1ccccc1)NC(=O)[C@H](CO)NC(=O)CNC(=O)[C@H](CC(=O)O)NC(=O)CNC(=O)[C@@H](N)Cc1cnc[nH]1)C(=O)N[C@@H](CC(N)=O)C(=O)N[C@H](C(=O)N[C@H](C(=O)N[C@@H](CC(C)C)C(=O)N[C@@H](CC(=O)O)C(=O)N[C@@H](Cc1ccccc1)C(=O)N[C@@H](CC(C)C)C(=O)N[C@@H](C)C(=O)N[C@@H](C)C(=O)N[C@@H](CCCNC(=N)N)C(=O)N[C@@H](CC(=O)O)C(=O)N[C@@H](Cc1ccccc1)C(=O)N[C@H](C(=O)N[C@@H](CC(N)=O)C(=O)N[C@@H](Cc1c[nH]c2ccccc12)C(=O)N[C@@H](CC(C)C)C(=O)N[C@H](C(=O)N[C@@H](CCC(N)=O)C(=O)N[C@H](C(=O)N[C@@H](CCCCN)C(N)=O)[C@@H](C)O)[C@@H](C)CC)[C@@H](C)CC)[C@@H](C)CC)[C@@H](C)O` (stereo partly drawn) (H-HGDGSFSDE[ξNle]NTILDFLAARDFINWLIQTK-NH2), the pEC50 was 9.85 in data set [1] and less than 6.00 in data set [2]. Moreover, in the data set on HEK293, the Ratio EC50 is greater than 7100. Besides, in data set [3], the clearance stood at 5.9 mL/min/kg. For the same molecule, the result in data set [4] was inactive.

For the molecule `CCCCC(NC(=O)[C@H](CCC(=O)O)NC(=O)[C@H](CC(=O)O)NC(=O)[C@H](CO)NC(=O)[C@H](Cc1ccccc1)NC(=O)[C@H](CO)NC(=O)CNC(=O)[C@H](CC(=O)O)NC(=O)CNC(=O)[C@@H](N)Cc1cnc[nH]1)C(=O)N[C@@H](CC(N)=O)C(=O)N[C@H](C(=O)N[C@H](C(=O)N[C@@H](CC(C)C)C(=O)N[C@@H](CC(=O)O)C(=O)N[C@@H](Cc1ccc(O)cc1)C(=O)N[C@@H](CC(C)C)C(=O)N[C@@H](C)C(=O)N[C@@H](C)C(=O)N[C@@H](CCCNC(=N)N)C(=O)N[C@@H](CC(=O)O)C(=O)N[C@@H](Cc1ccccc1)C(=O)N[C@H](C(=O)N[C@@H](CC(N)=O)C(=O)N[C@@H](Cc1c[nH]c2ccccc12)C(=O)N[C@@H](CC(C)C)C(=O)N[C@H](C(=O)N[C@@H](CCC(N)=O)C(=O)N[C@H](C(=O)N[C@@H](CCCCN)C(N)=O)[C@@H](C)O)[C@@H](C)CC)[C@@H](C)CC)[C@@H](C)CC)[C@@H](C)O` (stereo partly drawn) (H-HGDGSFSDE[ξNle]NTILDYLAARDFINWLIQTK-NH2), the negative-log EC50 (pEC50) in data set [1] is 9.96; in data set [2], less than 6.00. In addition, in the data set on HEK293, the Ratio EC50 was greater than 9000. Besides, the clearance in data set [3] came to 1.2 mL/min/kg. In addition, in data set [4], the result was inactive.

For `CCCCC(NC(=O)[C@H](CCC(=O)O)NC(=O)[C@H](CC(=O)O)NC(=O)[C@H](CO)NC(=O)[C@H](Cc1ccccc1)NC(=O)[C@H](CO)NC(=O)CNC(=O)[C@H](CC(=O)O)NC(=O)CNC(=O)[C@H](N)Cc1cnc[nH]1)C(=O)N[C@@H](CC(N)=O)C(=O)N[C@H](C(=O)N[C@H](C(=O)N[C@@H](CC(C)C)C(=O)N[C@@H](CC(=O)O)C(=O)NC(CC1CCCCC1)C(=O)N[C@H](CC(C)C)C(=O)N[C@H](C)C(=O)N[C@H](C)C(=O)N[C@H](CCCNC(=N)N)C(=O)N[C@H](CC(=O)O)C(=O)N[C@H](Cc1ccccc1)C(=O)N[C@@H](C(=O)N[C@H](CC(N)=O)C(=O)N[C@@H](Cc1c[nH]c2ccccc12)C(=O)N[C@@H](CC(C)C)C(=O)N[C@H](C(=O)N[C@@H](CCC(N)=O)C(=O)N[C@H](C(=O)N[C@H](CCCCN)C(N)=O)[C@@H](C)O)[C@H](C)CC)[C@@H](C)CC)[C@H](C)CC)[C@@H](C)O` (stereo partly drawn), the Ratio EC50 with HEK293 is greater than 10000. Moreover, in data set [4], the outcome was inactive.

For the molecule `CCCCC(NC(=O)[C@@H](CCC(=O)O)NC(=O)[C@@H](CC(=O)O)NC(=O)[C@@H](CO)NC(=O)[C@@H](Cc1ccccc1)NC(=O)[C@@H](CO)NC(=O)CNC(=O)[C@@H](CC(=O)O)NC(=O)CNC(=O)[C@@H](N)Cc1cnc[nH]1)C(=O)N[C@H](CC(N)=O)C(=O)N[C@@H](C(=O)N[C@@H](C(=O)N[C@H](CC(C)C)C(=O)N[C@H](CC(=O)O)C(=O)NC(Cc1cccc2ccccc12)C(=O)N[C@@H](CC(C)C)C(=O)N[C@@H](C)C(=O)N[C@@H](C)C(=O)N[C@@H](CCCNC(=N)N)C(=O)N[C@@H](CC(=O)O)C(=O)N[C@@H](Cc1ccccc1)C(=O)N[C@H](C(=O)N[C@@H](CC(N)=O)C(=O)N[C@H](Cc1c[nH]c2ccccc12)C(=O)N[C@H](CC(C)C)C(=O)N[C@@H](C(=O)N[C@H](CCC(N)=O)C(=O)N[C@@H](C(=O)N[C@@H](CCCCN)C(N)=O)[C@H](C)O)[C@@H](C)CC)[C@H](C)CC)[C@@H](C)CC)[C@H](C)O` (stereo partly drawn), the Ratio EC50 with HEK293 is greater than 5200. Also, the outcome in data set [4] was inactive.
